According to PubChem BioAssay (NCI):
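Briefly, cells in 96-well plates were exposed to five compound concentrations for 48 h, and endpoints were estimated by linear interpolation. At the GI50, growth is halved. At the TGI there is no net growth.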

Legend:
Experiment in all cases: NCI-60 cell line screen, 48 h
[1] = tested on: 786-0 renal
[2] = tested on: A498 renal
[3] = tested on: A549 NSCLC
[4] = tested on: ACHN renal
[5] = tested on: BT-549 breast
[6] = tested on: CAKI-1 renal
[7] = tested on: CCRF-CEM leukemia
[8] = tested on: COLO 205 colon
[9] = tested on: DU-145 prostate
[10] = tested on: HCC-2998 colon
[11] = tested on: HCT-116 colon
[12] = tested on: HCT-15 colon
[13] = tested on: HOP-62 NSCLC
[14] = tested on: HOP-92 NSCLC
[15] = tested on: HS 578T breast
[16] = tested on: HT29 colon
[17] = tested on: IGROV1 ovarian
[18] = tested on: K-562 leukemia
[19] = tested on: KM12 colon
[20] = tested on: LOX IMVI melanoma
[21] = tested on: M14 melanoma
[22] = tested on: MALME-3M melanoma
[23] = tested on: MCF7 breast
[24] = tested on: MDA-MB-231 breast
[25] = tested on: MDA-MB-435
[26] = tested on: MOLT-4 leukemia
[27] = tested on: NCI-H226 lung
[28] = tested on: NCI-H23 lung
[29] = tested on: NCI-H460 lung
[30] = tested on: NCI-H522 lung
[31] = tested on: NCI/ADR-RES ovarian
[32] = tested on: OVCAR-4 ovarian
[33] = tested on: OVCAR-5 ovarian
[34] = tested on: OVCAR-8 ovarian
[35] = tested on: PC-3 prostate
[36] = tested on: RPMI-8226 leukemia
[37] = tested on: SF-268 CNS
[38] = tested on: SF-295 CNS
[39] = tested on: SF-539 CNS
[40] = tested on: SK-MEL-2 melanoma
[41] = tested on: SK-MEL-28 melanoma
[42] = tested on: SK-MEL-5 melanoma
[43] = tested on: SK-OV-3 ovarian
[44] = tested on: SN12C renal
[45] = tested on: SNB-19 CNS
[46] = tested on: SNB-75 CNS
[47] = tested on: SR leukemia
[48] = tested on: SW-620 colon
[49] = tested on: T-47D breast
[50] = tested on: TK-10 renal
[51] = tested on: U251 CNS
[52] = tested on: UACC-257 melanoma
[53] = tested on: UACC-62 melanoma
[54] = tested on: UO-31 renal
[55] = tested on: EKVX NSCLC
[56] = tested on: MDA-N
[57] = tested on: OVCAR-3 ovarian
[58] = tested on: RXF 393 renal
[59] = tested on: HL-60(TB) leukemia

CNC(=O)c1ccccc1CC1(O)c2ccccc2Oc2ccccc21
GI50 [1]: 20.3 µM
TGI [1]: 46.4 µM
GI50 [2]: 4.54 µM
TGI [2]: 37.5 µM
GI50 [3]: 16.5 µM
TGI [3]: > 100 µM
GI50 [4]: 26.2 µM
TGI [4]: > 100 µM
GI50 [5]: 25.9 µM
TGI [5]: > 100 µM
GI50 [6]: 21.7 µM
TGI [6]: > 100 µM
GI50 [7]: 24.6 µM
TGI [7]: > 100 µM
GI50 [8]: 3.99 µM
TGI [8]: 15.9 µM
GI50 [9]: 22 µM
TGI [9]: 56.5 µM
GI50 [10]: 29 µM
TGI [10]: 91.3 µM
GI50 [11]: 21.8 µM
TGI [11]: > 100 µM
GI50 [12]: 12.7 µM
TGI [12]: > 100 µM
GI50 [13]: 17.2 µM
TGI [13]: 74.5 µM
GI50 [14]: 7.52 µM
TGI [14]: 44.4 µM
GI50 [15]: 16.6 µM
TGI [15]: 57.1 µM
GI50 [16]: 9.73 µM
TGI [16]: 51.1 µM
GI50 [17]: 26.4 µM
TGI [17]: > 100 µM
GI50 [18]: 6.78 µM
TGI [18]: > 100 µM
GI50 [19]: 8.15 µM
TGI [19]: 44.6 µM
GI50 [20]: 29.1 µM
TGI [20]: > 100 µM
GI50 [21]: 15.3 µM
TGI [21]: 56.6 µM
GI50 [22]: 22.8 µM
TGI [22]: > 100 µM
GI50 [23]: 5.08 µM
TGI [23]: 44.5 µM
GI50 [24]: 15 µM
TGI [24]: 83.3 µM
GI50 [25]: 3.32 µM
TGI [25]: 19.9 µM
GI50 [26]: 36.4 µM
TGI [26]: > 100 µM
GI50 [27]: 11.3 µM
TGI [27]: 34.8 µM
GI50 [28]: 26 µM
TGI [28]: > 100 µM
GI50 [29]: 25 µM
TGI [29]: 82.6 µM
GI50 [30]: 8.39 µM
TGI [30]: 37.3 µM
GI50 [31]: 10.1 µM
TGI [31]: 86.9 µM
GI50 [32]: 27.8 µM
TGI [32]: > 100 µM
GI50 [33]: 29.1 µM
TGI [33]: > 100 µM
GI50 [34]: 29.1 µM
TGI [34]: > 100 µM
GI50 [35]: 13.1 µM
TGI [35]: 99.3 µM
GI50 [36]: 26.6 µM
TGI [36]: 91.7 µM
GI50 [37]: 24.2 µM
TGI [37]: 85.9 µM
GI50 [38]: 20.7 µM
TGI [38]: > 100 µM
GI50 [39]: 17.3 µM
TGI [39]: 40.8 µM
GI50 [40]: 14.2 µM
TGI [40]: 34.5 µM
GI50 [41]: 23.2 µM
TGI [41]: > 100 µM
GI50 [42]: 3.2 µM
TGI [42]: 13 µM
GI50 [43]: 24 µM
TGI [43]: 87.3 µM
GI50 [44]: 26 µM
TGI [44]: > 100 µM
GI50 [45]: 24.6 µM
TGI [45]: > 100 µM
GI50 [46]: 12.4 µM
TGI [46]: 39 µM
GI50 [47]: 6.61 µM
TGI [47]: 86.4 µM
GI50 [48]: 14 µM
TGI [48]: > 100 µM
GI50 [49]: 21.5 µM
TGI [49]: > 100 µM
GI50 [50]: 26.6 µM
TGI [50]: 89.9 µM
GI50 [51]: 19.6 µM
TGI [51]: 59.6 µM
GI50 [52]: 33.8 µM
TGI [52]: > 100 µM
GI50 [53]: 10.4 µM
TGI [53]: 52.6 µM
GI50 [54]: 29.4 µM
TGI [54]: > 100 µM

N#C/C(=C\NC(=S)Nc1ccc(S(=O)(=O)Nc2ccccn2)cc1)C(N)=O
TGI [1]: > 100 µM
TGI [2]: > 100 µM
TGI [3]: > 100 µM
TGI [4]: > 100 µM
TGI [6]: > 100 µM
TGI [7]: > 100 µM
TGI [8]: > 100 µM
TGI [9]: > 100 µM
TGI [55]: > 100 µM
TGI [11]: > 100 µM
TGI [12]: > 100 µM
TGI [13]: > 100 µM
TGI [14]: > 100 µM
TGI [15]: > 100 µM
TGI [16]: > 100 µM
TGI [17]: > 100 µM
TGI [18]: > 100 µM
TGI [19]: > 100 µM
TGI [20]: > 100 µM
TGI [21]: > 100 µM
TGI [22]: > 100 µM
TGI [23]: > 100 µM
TGI [24]: > 100 µM
TGI [25]: > 100 µM
TGI [56]: > 100 µM
TGI [26]: > 100 µM
TGI [27]: > 100 µM
TGI [28]: > 100 µM
TGI [29]: > 100 µM
TGI [30]: > 100 µM
TGI [31]: > 100 µM
TGI [57]: > 100 µM
TGI [32]: > 100 µM
TGI [33]: > 100 µM
TGI [34]: > 100 µM
TGI [35]: > 100 µM
TGI [36]: > 100 µM
TGI [58]: > 100 µM
TGI [37]: > 100 µM
TGI [38]: > 100 µM
TGI [39]: > 100 µM
TGI [40]: > 100 µM
TGI [41]: > 100 µM
TGI [42]: > 100 µM
TGI [43]: > 100 µM
TGI [44]: > 100 µM
TGI [45]: > 100 µM
TGI [46]: > 100 µM
TGI [47]: > 100 µM
TGI [48]: > 100 µM
TGI [50]: > 100 µM
TGI [51]: > 100 µM
TGI [52]: > 100 µM
TGI [53]: > 100 µM
TGI [54]: > 100 µM

c1ccc(C[P+]2(c3ccccc3)c3ccccc3-c3ccccc32)cc1
TGI [1]: > 100 µM
TGI [3]: > 100 µM
TGI [5]: > 100 µM
TGI [6]: > 100 µM
TGI [7]: > 100 µM
TGI [8]: > 100 µM
TGI [9]: > 100 µM
TGI [55]: > 100 µM
TGI [10]: > 100 µM
TGI [11]: > 100 µM
TGI [12]: > 100 µM
TGI [59]: > 100 µM
TGI [13]: > 100 µM
TGI [14]: > 100 µM
TGI [15]: > 100 µM
TGI [17]: > 100 µM
TGI [18]: > 100 µM
TGI [19]: > 100 µM
TGI [20]: > 100 µM
TGI [21]: > 100 µM
TGI [23]: > 100 µM
TGI [24]: > 100 µM
TGI [25]: > 100 µM
TGI [56]: > 100 µM
TGI [26]: > 100 µM
TGI [27]: > 100 µM
TGI [28]: > 100 µM
TGI [30]: > 100 µM
TGI [57]: > 100 µM
TGI [34]: > 100 µM
TGI [35]: > 100 µM
TGI [36]: > 100 µM
TGI [58]: > 100 µM
TGI [37]: > 100 µM
TGI [38]: > 100 µM
TGI [39]: > 100 µM
TGI [41]: > 100 µM
TGI [42]: > 100 µM
TGI [43]: > 100 µM
TGI [44]: > 100 µM
TGI [45]: > 100 µM
TGI [46]: > 100 µM
TGI [48]: > 100 µM
TGI [50]: > 100 µM
TGI [52]: > 100 µM
TGI [53]: > 100 µM
TGI [54]: > 100 µM
